Laboratory results reported in patent US10039761B2, “Co-crystals and pharmaceutical compositions comprising the same” (Vertex Pharmaceuticals Incorporated, priority 2013, dated 2018).

What was measured:
[1] = test system: OD26749 primary NSCLC xenograft; test: OD26749 primary NSCLC xenograft efficacy with whole body IR; assay type: in vivo, nude mice; settings: bridging study; Compound (2) PO 50 mg/kg bid (0, 4 h), 2 Gy ([…]) qdx3
Method: The in vivo efficacies of Compounds (1) and (2) in combination with whole body IR were examined in the OD26749 primary NSCLC (non-small cell lung cancer) and the OE-19 GEJ cell line xenograft models. In these studies, Compounds (1) and (2) were formulated with 16% captisol/1% PVP/1% HPMC E5 pH2.
The in vivo efficacy of Compound (1) was evaluated in the primary OD26749 NSCLC subcutaneous xenograft model. […] […] Compound (1) was administered PO (tid at 0, 3, and 7 h) at 100 mg/kg alone or with a single 2 Gy dose of whole body IR at 3.25 h. […] Compound (1) in combination with 2 Gy whole body IR induced significant tumor regression (% T/Ti of −75; P<0.01) compared to IR alone.
The efficacies of Compounds (1) and (2) in combination with whole body IR (2 Gy) were evaluated in the OD26749 primary NSCLC xenograft model at a Compound ([…]) and Compound (2) dose levels of 50 mg/kg and 100 mg/kg PO bid (0 and 4 h). Two cycles of whole body IR (2 Gy) were given 15 min after the first compound administration (0.25 hour). Control animals were administered vehicle PO bid (0 and 4 h). […]
(§1) In Tables 14 and 15, for example, PO bid (0, 4 h) indicates Compound (2) is administered twice (bid) at time point 0 and then 4 hours after; IR (0.25 h) qdx3 indicates radiation is administered 15 minutes (0.25 h) after the administration of Compound (2) (0 h), and once a day for 3 days (qdx3); q7dx2 indicates once a week for two weeks; qod indicates every other day twice (e.g., Day 1 and Day 3); and paclitaxel q7dx3 (−0.25 h), carboplatin q7dx3 (−0.25 h) indicates administration of paclitaxel and carboplatin 15 minutes prior to the administration of Compound (2), followed by additional administration of Compound (2) after 4 hours after the first administration of Compound (2).

[2] = Blood exposure in OD26749 bridging study; assay type: in vivo, nude mice; settings: nude, mouse, whole blood; 100 mg/kg PO bid (0 and 4 h) combination groups with 2 Gy whole body IR
[3] = test system: LU-01-0030 primary NSCLC subcutaneous xenograft; test: LU-01-0030 primary NSCLC xenograft efficacy with focused IR; assay type: in vivo, mice
Method: (§2) The in vivo efficacies of Compounds (1) and (2) were evaluated alone and in combination with three consecutive days of focused IR in the primary LU-01-0030 NSCLC subcutaneous xenograft model. The dose-dependent anti-tumor activity of Compound (2) alone and in combination with focused beam IR was evaluated in the LU-01-0030 model.
as §1

[4] = Body weight in LU-01-0030 xenograft studies; assay type: in vivo, mice; settings: Day 34 study
Method: as §2, with “LU-01-0030 model. […] Mice in the combination treatment groups were monitored (without treatment) for up to 90 days as some mice had no evidence of tumor burden.” for “LU-01-0030 model.”

[5] = Body weight in OE-19 xenograft studies; assay type: in vivo; settings: PO 100 mg/kg bid (0, 4 h) q7dx2, 2 Gy IR q7dx2 ([…]); Day 7
Method: The OE-19 cell line xenograft model was used to evaluate the efficacy of Compounds (1) and (2) alone and in combination with IR. Two cycles of treatment were administered (Day 0 and Day 7) as performed in the OD26749 model above.

[6] = test system: ST-02-0004 primary GEJ tumor xenograft; test: ST-02-0004 primary GEJ tumor xenograft efficacy with focused IR; assay type: in vivo; settings: for % T/C (Day 45): 5 mg/kg paclitaxel, 25 mg/kg carboplatin q7dx3 (−[…])
Method: The in vivo activities of Compounds (1) and (2) were compared in combination with focused beam IR in a primary gastric cancer subcutaneous xenograft model. In the ST 02 0004 model, focused IR was administered on three consecutive days alone and in combination with Compound (1) or Compound (2).
The anti-tumor activity of Compound (2) in combination with focused-beam IR and the standard of care agents, paclitaxel and carboplatin, was also evaluated in the ST 02 0004 model. Treatment with paclitaxel, carboplatin, and IR was administered once per week for three weeks alone or in combination with Compound (2).
as §1

primary human tumors = test: Primary tumor chemosensitivity assay (TCA), Cell Titer-Glo, Bliss; assay type: cell-based; settings: Compound (2) with bleomycin; gastric, pancreatic tumors
Method: Primary human tumors tested in vitro may provide a better indicator of efficacy of DNA PK inhibition than immortalized cancer cell lines due to their increased heterogeneity and closer proximity to the patient tumor from which they were derived. […] Dissociated cells from mouse-passaged tumors were cultured for 6 days after combination exposure and then assessed for viability using the Cell Titer-Glo assay. The Bliss Additivity statistical model was used to determine the degree of synergy, additivity, or antagonism of each combination treatment.

[7] = Body weight in OD26749 xenograft studies; assay type: in vivo, nude mice; settings: bridging study; Compound (2) PO 50 mg/kg bid (0, 4 h), 2 Gy ([…]) qdx3; Day 1

SMILES: [2H]c1nc(C)nc([2H])c1-c1cc(NC[C@@H](C)c2cccc3c(C(=O)NC)ccnc23)ncn1 [Compound (2), (S)-N-methyl-8-(1-((2′-methyl-4′,6′-dideutero-[4,5′-bipyrimidin]-6-yl)amino)propan-2-yl)quinoline-4-carboxamide]
- % T/C (Day 22) [1]: 27.2%
- AUC [2]: 58200 ng·h/mL
- % T/Ti (Day 34) ([3]; PO 25 mg/kg bid (0, 4 h) qdx3, 2 Gy IR ([…]) qdx3): −67.1%
- % T/Ti (Day 34) ([3]; PO 50 mg/kg bid (0, 4 h) qdx3, 2 Gy IR ([…]) qdx3): −96.3%
- % T/C (Day 34) ([3]; PO 50 mg/kg bid (0, 4 h) qdx3, no IR): 98.3%
- % T/Ti (Day 34) ([3]; PO 50 mg/kg qdx3, 2 Gy IR ([…]) qdx3): −96.9%
- Max. body wt loss (%) ([4]; PO 25 mg/kg bid (0, 4 h) qdx3, 2 Gy IR ([…]) qdx3, Day 3): −6.59%
- Max. body wt loss (%) ([4]; PO 25 mg/kg qdx3, 2 Gy IR ([…]) qdx3, Day 1): −4.62%
- Max. body wt loss (%) ([4]; PO 50 mg/kg bid (0, 4 h) qdx3, 2 Gy IR ([…]) qdx3, Day 3): −6.93%
- Max. body wt loss (%) ([4]; PO 50 mg/kg bid (0, 4 h) qdx3, no IR, Day 9): −1.11%
- Max. body wt loss (%) ([4]; PO 50 mg/kg qdx3, 2 Gy IR ([…]) qdx3, Day 3): −4.66%
- Max. body wt loss (%) [5]: −6.50%
- % T/C (Day 45) ([6]; 2 Gy IR qdx3 ([…]), Compound (2) PO 25 mg/kg bid (0, 4 h) qdx3): 11.1%
- % T/C (Day 45) ([6]; 2 Gy IR qdx3 ([…]), Compound (2) PO 50 mg/kg bid (0, 4 h) qdx3): 2.5%
- % T/C (Day 45) ([6]; Compound (2) PO 50 mg/kg bid (0, 4 h) qdx3, no IR): 95.4%
- % T/C (Day 34) ([6]; Compound (2) PO 25 mg/kg bid (0, 4 h) qdx3, 2 Gy IR qdx3 ([…])): 17.4%
- % T/C (Day 34) ([6]; Compound (2) PO 100 mg/kg bid (0, 4 h) qdx3, 2 Gy IR qdx3 ([…])): 9.2%
- % T/C (Day 34) ([6]; Compound (2) PO 100 mg/kg bid (0, 4 h) qdx3, no IR): 67.6%
- tumors additive or synergistic / tumors tested (primary human tumors): 20/20
- tumors strongly synergistic / tumors tested (primary human tumors): 3/20
- Max. body wt loss (%) [7]: −2.10%
